What was measured:
MAO-A enzyme = target: T1, MAO-A enzyme (Homo sapiens, UniProt P21397); experiment: MAO-Glo luminescent assay, MAO-A inhibition; type: biochemical; conditions: FIG. 1
T1 sequence (P21397 1-527): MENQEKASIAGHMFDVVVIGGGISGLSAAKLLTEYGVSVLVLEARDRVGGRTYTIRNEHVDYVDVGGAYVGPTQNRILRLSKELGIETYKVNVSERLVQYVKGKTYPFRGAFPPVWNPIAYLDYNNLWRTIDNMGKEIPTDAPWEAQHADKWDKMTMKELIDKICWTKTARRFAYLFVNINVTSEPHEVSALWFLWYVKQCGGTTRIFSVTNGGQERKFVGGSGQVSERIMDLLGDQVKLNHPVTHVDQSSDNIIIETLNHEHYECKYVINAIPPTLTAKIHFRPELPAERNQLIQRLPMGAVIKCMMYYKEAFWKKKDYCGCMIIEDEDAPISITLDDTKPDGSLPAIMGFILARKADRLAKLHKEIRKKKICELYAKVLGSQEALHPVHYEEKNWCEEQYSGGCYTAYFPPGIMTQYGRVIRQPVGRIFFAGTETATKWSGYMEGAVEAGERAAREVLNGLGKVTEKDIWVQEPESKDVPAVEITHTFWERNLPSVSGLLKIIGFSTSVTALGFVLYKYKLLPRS
Source text: (§1) This example describes experiments for determining monoamine oxidase (MAO) inhibition activity for cannabidiol. MAOs are enzymes located on the outer membrane of mitochondria and are involved in the catabolism of monoamine neurotransmitters. There are two well-characterized isoenzymes: MAO-A, which predominantly catabolizes serotonin and norepinephrine, and MAO-B, which preferentially catabolizes benzylamine and phenylethylamine. Dopamine and tyramine are metabolized by both isoforms.
(§2) To detect the activity of MAO, a luminescent method (MAO-Glo Assay kit, from Promega, Cat #V1401) was used. In this method, a MAO substrate (a derivative of beetle luciferin provided in the kit) is mixed with the compound to be tested (in this case, myosmine and control compounds). Then, the MAO-A or MAO-B enzyme is added to the mixture and incubated with the reaction for 1 hour at room temperature. The MAO enzymes, if not inhibited by the test compound, will convert the substrate into methyl ester luciferin. Finally, a luciferin detection reagent (provided by the kit) is added (20 minutes at room temperature) to stop the MAO reaction and convert methyl ester luciferin into D-luciferin. […] The luminescent signal is measured and recorded using a luminometer.

MAO-B enzyme = target: T2, MAO-B enzyme (Homo sapiens, UniProt P27338); experiment: MAO-Glo luminescent assay, MAO-B inhibition; type: biochemical; conditions: FIG. 2
T2 sequence (P27338 1-520): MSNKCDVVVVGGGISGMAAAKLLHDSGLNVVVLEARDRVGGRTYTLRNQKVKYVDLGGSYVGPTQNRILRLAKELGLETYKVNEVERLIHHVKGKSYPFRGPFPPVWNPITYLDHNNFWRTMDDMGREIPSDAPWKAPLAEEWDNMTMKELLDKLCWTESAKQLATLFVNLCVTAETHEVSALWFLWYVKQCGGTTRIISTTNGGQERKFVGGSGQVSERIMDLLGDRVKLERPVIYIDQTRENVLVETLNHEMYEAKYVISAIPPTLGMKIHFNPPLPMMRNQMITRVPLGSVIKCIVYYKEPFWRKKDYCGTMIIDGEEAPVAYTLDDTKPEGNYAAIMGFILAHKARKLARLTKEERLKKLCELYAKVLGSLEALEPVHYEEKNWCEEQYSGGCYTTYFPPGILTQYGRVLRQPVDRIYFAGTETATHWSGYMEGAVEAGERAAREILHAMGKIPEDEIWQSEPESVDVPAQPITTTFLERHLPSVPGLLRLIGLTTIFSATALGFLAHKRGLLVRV
Source text: as §1, §2

monoamine oxidase (MAO) = conditions: Current Drug Safety, 2011, Vol. 6, No. 4; cited from earlier work
[1] = at a concentration of 7.5 mM (7,500 micromolar)

C=C(C)[C@@H]1CCC(C)=C[C@H]1c1c(O)cc(CCCCC)cc1O [CBD, 2-[(1R,6R)-3-methyl-6-(1-methylethenyl)-2-cyclohexen-1-yl]-5-pentyl-1,3-benzenediol]
MAO-A inhibition, result in words (MAO-A enzyme; compared with nornicotine): potent inhibitor of MAO-A, in fact to an even greater extent than nornicotine
inhibition at 7500 µM (MAO-A enzyme; [1]): ~50%
MAO-B inhibition, result in words (MAO-B enzyme; compared with MAO-A activity): also inhibits MAO-B activity, although to a lesser extent than MAO-A activity
inhibition at 7500 µM (MAO-B enzyme; [1]): ~30%
inhibiting monoamine oxidase (MAO) activity, prior report (monoamine oxidase (MAO)): ineffective

From patent publication US11191736B2, “Pharmaceutical formulations containing cannabidiol and nicotine for treating smokeless tobacco addiction” (CV Sciences, Inc., priority 2016, dated 2021)
